From patent US20040147788A1, “Stilbene derivatives and their use as aryl hydrocarbon receptor antagonistic ligands” (priority 2002, published 2004)

How the values were obtained:
ER = target: T1, ER (Homo sapiens, UniProt P03372); assay: ER-mediated transactivation, ERE-driven Luciferase reporter stable cell line (MCF-7-Luc); for ER T.A. (transcriptional activity): key: Ago: agonist; N.M.: not measurable; format: cell-based; details: for ER T.A. (transcriptional activity): trans-stilbenes; for ER TA (transcriptional activity): cis-stilbenes
T1 construct: stably transfecting MCF-7 cells with the ERE-globin-tk-luc-SV-Neo plasmid; endogenous in cells; host or cells: MCF-7-Luc (MCF-7 stably transfected with ERE-globin-tk-luc-SV-Neo)
T1 sequence (P03372 1-595): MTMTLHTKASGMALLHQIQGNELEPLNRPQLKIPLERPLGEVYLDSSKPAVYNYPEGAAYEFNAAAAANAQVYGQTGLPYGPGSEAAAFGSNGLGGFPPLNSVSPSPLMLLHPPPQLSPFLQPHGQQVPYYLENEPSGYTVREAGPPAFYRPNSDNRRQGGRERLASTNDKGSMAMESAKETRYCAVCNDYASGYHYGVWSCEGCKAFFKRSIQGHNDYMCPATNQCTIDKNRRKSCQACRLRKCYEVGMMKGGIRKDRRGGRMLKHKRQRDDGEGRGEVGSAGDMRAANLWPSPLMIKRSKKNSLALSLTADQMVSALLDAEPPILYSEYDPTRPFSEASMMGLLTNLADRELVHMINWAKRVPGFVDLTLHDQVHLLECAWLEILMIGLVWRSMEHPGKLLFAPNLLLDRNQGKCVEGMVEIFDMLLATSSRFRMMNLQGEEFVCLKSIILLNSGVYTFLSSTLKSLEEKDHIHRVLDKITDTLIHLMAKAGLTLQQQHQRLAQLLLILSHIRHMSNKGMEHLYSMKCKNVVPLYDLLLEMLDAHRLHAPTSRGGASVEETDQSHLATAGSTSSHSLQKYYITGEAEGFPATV
Method: The human adenocarcinoma breast cell line MCF-7 was obtained from the American Tissue Culture Collection (Rockville, USA). The cells were established by stably transfecting MCF-7 cells with the ERE-globin-tk-luc-SV-Neo plasmid and thus expressed luciferase in an estrogen dependent manner MCF-7-Luc. […] Cells were incubated at 37° C. in a humidified 5% CO2 incubator. For experiments, cells were grown for 5 days in phenol red-free medium, containing 5% dextran-coated charcoal treated FCS (DCC-FCS). Medium was changed after 2 days. At day 5, cells were treated or not with compounds. Compounds were dissolved in ethanol.
For each condition, 15.103 cells were seeded per well in 12-well plates and treated, as described above, during 16 hours in a final volume of 0.5 mL. At the end of the treatment, cells were washed with PBS and lysed in 150 μl of lysis buffer (Promega, Charbonnieres, France). Luciferase activity was measured using the luciferase assay reagent (Promega), according to the manufacturer's instructions. Protein concentrations were measured using Bradford technique, to normalize the luciferase activity data. For each condition, average luciferase activity was calculated from the data of 3 independent wells.

[1] = target: T2, Aryl Hydrocarbon Receptor (AhR) (Oryctolagus cuniculus, UniProt O02747); assay: Ligand binding competition assay (Aryl Hydrocarbon Receptor), [3H]TCDD displacement; parameters: species or system female New Zealand rabbit (liver cytosol); details: for AhR RBA (relative binding affinity): resveratrol = 1
T2 construct: from tissue; host or cells: female New Zealand rabbit liver cytosol
T2 sequence (O02747 1-847): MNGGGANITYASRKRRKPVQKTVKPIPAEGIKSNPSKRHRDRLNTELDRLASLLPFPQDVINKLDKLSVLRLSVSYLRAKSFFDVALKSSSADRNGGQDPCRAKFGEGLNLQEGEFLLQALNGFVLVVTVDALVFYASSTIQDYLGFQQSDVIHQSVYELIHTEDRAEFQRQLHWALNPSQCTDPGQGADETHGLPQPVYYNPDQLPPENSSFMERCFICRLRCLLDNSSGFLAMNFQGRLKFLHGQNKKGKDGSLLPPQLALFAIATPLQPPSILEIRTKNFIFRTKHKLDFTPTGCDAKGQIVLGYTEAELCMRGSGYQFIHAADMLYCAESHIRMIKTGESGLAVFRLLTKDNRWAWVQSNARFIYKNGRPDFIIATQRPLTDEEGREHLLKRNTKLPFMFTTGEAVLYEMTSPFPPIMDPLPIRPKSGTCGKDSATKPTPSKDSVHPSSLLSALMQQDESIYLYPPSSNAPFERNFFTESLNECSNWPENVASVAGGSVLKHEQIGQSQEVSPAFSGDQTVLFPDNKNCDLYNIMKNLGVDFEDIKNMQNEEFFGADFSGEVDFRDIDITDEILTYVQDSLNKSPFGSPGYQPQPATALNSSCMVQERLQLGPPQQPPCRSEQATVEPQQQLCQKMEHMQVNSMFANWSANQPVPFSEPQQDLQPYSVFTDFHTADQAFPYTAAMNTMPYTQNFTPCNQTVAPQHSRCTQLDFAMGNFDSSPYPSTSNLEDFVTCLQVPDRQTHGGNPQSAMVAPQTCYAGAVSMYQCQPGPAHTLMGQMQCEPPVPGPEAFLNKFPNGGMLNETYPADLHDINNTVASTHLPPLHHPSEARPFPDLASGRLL
Method: Ligand binding competition assay (Aryl Hydrocarbon Receptor)
Experiments were conducted exactly as previously described by Savouret et al., (3). Briefly, binding competition was performed using female New Zealand rabbit liver cytosol as the receptor source. The cytosol was prepared at 4° C. in Hepes 20 mM pH 7.6, EDTA 1.5 mM, glycerol 10%, β-mercapto-ethanol 10 mM, with Complete protease cocktail (Roche, Meylan, France) by homogenisation in a Ultra-Turax homogenizer (Bioblock Scientific, Illkirch, France) followed with 20 strokes in a Dounce Homogenizer with the tight pestle. The homogenate was centrifuged 30 min at 20,000 g. The supernatant was centrifuged at 105,000 g for 65 min. The cytosol was aliquoted, snap-frozen in liquid nitrogen and kept at −80° C. Cytosol aliquotes (4.5 ml) were thawed on ice, diluted ten-fold in Hepes 20 mM pH 7.6, 5 mM CaCl2, containing Complete protease cocktail and 10 mM mercapto-ethanol, and recentrifuged 30 min. at 105,000 g. The cleared cytosol dilution was adjusted to 0.85 mg proteins/ml. 930 μl of diluted cytosol were preincubated with the desired amounts of unlabeled competitors in ethanol solutions for 1 hour at 4° C. Subsequently, 2,3,7,8-tetrachloro (1,6-3 H) dibenzo-p-dioxin (28 Ci/mmole) was added at 0.2 nM and incubation continued for 3 hours at 4° C. Non-displaceable binding was assessed by incubating the aliquotes with 70 μl of a 2% activated charcoal suspension in Hepes 20 mM pH 7.6 for 90 minutes at 4° C., followed by centrifugation at 15,000 g for 10 minutes. 500 μl of the supernatants were counted in 5 ml of Ultima Gold cocktail (Packard, Meridien, Conn.) in a Beckman liquid scintillation Counter (45% counting efficiency). Binding competition assays were repeated at least twice for each competitor and each point was performed in triplicate.

| ER T.A. (transcriptional activity) (ER) | AhR RBA (relative binding affinity) ([1]; trans-stilbenes) | relative binding affinity (RBA) for AhR [1] | ER TA (transcriptional activity) (ER) | AhR RBA (relative binding affinity) ([1]; cis-stilbenes) | SMILES |
| --- | --- | --- | --- | --- | --- |
| N.M | 17.5 | – | – | – | COc1ccc(/C=C/c2cc(F)cc(F)c2)cc1 [Compound 4c, (E)-1-(4-methoxyphenyl)-2-(3,5-difluorophenyl)-ethene] |
| N.M | 39.1 | – | – | – | Fc1ccc(/C=C/c2cc(F)cc(F)c2)cc1 [Compound 4d, (E)-1-(4-fluorophenyl)-2-(3,5-difluorophenyl)-ethene] |
| N.M | 52.1 | 52.1 | – | – | FC(F)(F)c1ccc(/C=C/c2cc(C(F)(F)F)cc(C(F)(F)F)c2)cc1 [Compound 4e, (E)-1-(4-trifluoromethylphenyl)-2-(3,5-ditrifluoromethylphenyl)-ethene] |
| N.M | 32.1 | – | – | – | COc1cc(/C=C/c2ccc(F)cc2)cc(OC)c1 [Compound 4f, (E)-1-(4-fluorophenyl)-2-(3,5-dimethoxyphenyl)-ethene] |
| N.M. | 39.8 | – | – | – | CCOc1ccc(/C=C/c2cc(OC)cc(OC)c2)cc1 [Compound 4g, (E)-1-(4-ethoxyphenyl)-2-(3,5-dimethoxyphenyl)-ethene] |
| N.M. | 791.0 | – | – | – | FC(F)(F)c1ccc(/C=C/c2cc(Cl)cc(Cl)c2)cc1 [Compound 4i, (E)-1-(4-trifluoromethylphenyl)-2-(3,5-dichlorophenyl)-ethene] |
| N.M. | 112.0 | 112.0 | – | – | COc1ccc(/C=C/c2cc(Cl)cc(Cl)c2)cc1 [Compound 4j, (E)-1-(4-methoxyphenyl)-2-(3,5-dichlorophenyl)-ethene] |
| – | – | – | N.M | 7.2 | COc1ccc(/C=C\c2cc(F)cc(F)c2)cc1 [Compound 5c, (Z)-1-(4-methoxyphenyl)-2-(3,5-difluorophenyl)-ethene] |
| – | – | – | N.M | 2.6 | Fc1ccc(/C=C\c2cc(F)cc(F)c2)cc1 [Compound 5d, (Z)-1-(4-fluorophenyl)-2-(3,5-difluorophenyl)-ethene] |
| – | – | – | N.M | 2.7 | FC(F)(F)c1ccc(/C=C\c2cc(C(F)(F)F)cc(C(F)(F)F)c2)cc1 [Compound 5e, (Z)-1-(4-trifluoromethylphenyl)-2-(3,5-ditrifluoromethylphenyl)-ethene] |
| – | – | – | N.M | 1.7 | COc1cc(/C=C\c2ccc(F)cc2)cc(OC)c1 [Compound 5f, (Z)-1-(4-fluorophenyl)-2-(3,5-dimethoxyphenyl)-ethene] |
| – | – | – | N.M | 2.5 | CCOc1ccc(/C=C\c2cc(OC)cc(OC)c2)cc1 [Compound 5g, (Z)-1-(4-ethoxyphenyl)-2-(3,5-dimethoxyphenyl)-ethene] |
| – | – | – | N.M | 10.9 | FC(F)(F)c1ccc(/C=C\c2cc(Cl)cc(Cl)c2)cc1 [Compound 5i, (Z)-1-(4-trifluoromethylphenyl)-2-(3,5-dichlorophenyl)-ethene] |
| – | – | – | N.M | 13.0 | COc1ccc(/C=C\c2cc(Cl)cc(Cl)c2)cc1 [Compound 5j, (Z)-1-(4-methoxyphenyl)-2-(3,5-dichlorophenyl)-ethene] |

| SMILES | ER T.A. (transcriptional activity) (ER) | AhR RBA (relative binding affinity) ([1]; trans-stilbenes) | relative binding affinity (RBA) for AhR [1] | ER TA (transcriptional activity) (ER) | AhR RBA (relative binding affinity) ([1]; cis-stilbenes) |
| --- | --- | --- | --- | --- | --- |
| COc1ccc(/C=C/c2cc(OC)cc(OC)c2)cc1 [Compound 4a, (E)-1-(4-methoxyphenyl)-2-(3,5-dimethoxyphenyl)-ethene] | Ago | 21.0 | – | – | – |
| Clc1ccc(/C=C/c2cc(Cl)cc(Cl)c2)cc1 [Compound 4b, (E)-1-(4-chlorophenyl)-2-(3,5-dichlorophenyl)-ethene] | N.M | 130.0 | 130.0 | – | – |
| CCCCOc1ccc(/C=C/c2cc(OC)cc(OC)c2)cc1 [Compound 4h, (E)-1-(4-butoxyphenyl)-2-(3,5-dimethoxyphenyl)-ethene] | N.M. | 8.1 | – | – | – |
| COc1ccc(/C=C\c2cc(OC)cc(OC)c2)cc1 [Compound 5a, (Z)-1-(4-methoxyphenyl)-2-(3,5-dimethoxyphenyl)-ethene] | – | – | – | Ago | 2.1 |
| Clc1ccc(/C=C\c2cc(Cl)cc(Cl)c2)cc1 [Compound 5b, (Z)-1-(4-chlorophenyl)-2-(3,5-dichlorophenyl)-ethene] | – | – | – | N.M | 12.4 |
| CCCCOc1ccc(/C=C\c2cc(OC)cc(OC)c2)cc1 [Compound 5h, (Z)-1-(4-butoxyphenyl)-2-(3,5-dimethoxyphenyl)-ethene] | – | – | – | N.M | 3.7 |
